The target in test [1] is T1, Aldehyde oxidase 1 (Macaca fascicularis, UniProt Q5FB27).
T1 sequence (Q5FB27 whole entry): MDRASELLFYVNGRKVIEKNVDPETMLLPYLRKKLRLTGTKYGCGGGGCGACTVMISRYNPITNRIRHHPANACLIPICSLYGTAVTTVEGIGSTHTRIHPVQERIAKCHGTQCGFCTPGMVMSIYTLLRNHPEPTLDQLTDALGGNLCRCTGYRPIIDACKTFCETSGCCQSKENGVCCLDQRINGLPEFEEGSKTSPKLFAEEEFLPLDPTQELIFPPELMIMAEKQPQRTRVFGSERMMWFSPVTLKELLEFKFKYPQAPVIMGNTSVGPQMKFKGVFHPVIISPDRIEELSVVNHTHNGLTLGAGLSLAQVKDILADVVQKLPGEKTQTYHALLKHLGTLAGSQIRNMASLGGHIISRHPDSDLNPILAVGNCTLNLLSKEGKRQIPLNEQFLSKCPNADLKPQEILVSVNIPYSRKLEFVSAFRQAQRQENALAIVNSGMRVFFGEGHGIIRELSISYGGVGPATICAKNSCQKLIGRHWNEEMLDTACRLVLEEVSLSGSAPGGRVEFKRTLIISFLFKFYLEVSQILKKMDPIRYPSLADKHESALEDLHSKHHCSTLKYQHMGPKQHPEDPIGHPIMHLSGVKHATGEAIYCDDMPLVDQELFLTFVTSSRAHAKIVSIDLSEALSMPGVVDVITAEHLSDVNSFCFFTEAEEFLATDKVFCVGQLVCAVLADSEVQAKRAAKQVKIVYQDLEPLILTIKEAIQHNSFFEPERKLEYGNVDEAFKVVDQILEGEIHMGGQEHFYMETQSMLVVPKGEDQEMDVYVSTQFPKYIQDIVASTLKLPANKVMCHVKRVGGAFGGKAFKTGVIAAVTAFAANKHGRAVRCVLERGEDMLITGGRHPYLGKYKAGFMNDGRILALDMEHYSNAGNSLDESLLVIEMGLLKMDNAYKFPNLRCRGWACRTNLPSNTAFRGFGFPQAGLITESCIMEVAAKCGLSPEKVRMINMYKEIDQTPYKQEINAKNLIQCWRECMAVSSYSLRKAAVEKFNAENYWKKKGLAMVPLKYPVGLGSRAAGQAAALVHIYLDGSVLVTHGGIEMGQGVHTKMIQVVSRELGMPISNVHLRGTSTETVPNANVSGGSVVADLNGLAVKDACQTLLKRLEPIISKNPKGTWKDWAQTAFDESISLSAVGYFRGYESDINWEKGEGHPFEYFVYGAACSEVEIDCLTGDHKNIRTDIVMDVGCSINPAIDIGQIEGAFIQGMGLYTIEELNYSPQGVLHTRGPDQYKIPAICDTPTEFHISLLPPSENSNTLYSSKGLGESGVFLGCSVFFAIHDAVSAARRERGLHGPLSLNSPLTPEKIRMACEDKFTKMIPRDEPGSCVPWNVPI
The test is described as follows: Inhibition of monkey aldehyde oxidase.

For test [2], the target named is T2, Aldehyde oxidase 1 (Mus musculus, UniProt O54754).
T2 sequence (O54754 whole entry): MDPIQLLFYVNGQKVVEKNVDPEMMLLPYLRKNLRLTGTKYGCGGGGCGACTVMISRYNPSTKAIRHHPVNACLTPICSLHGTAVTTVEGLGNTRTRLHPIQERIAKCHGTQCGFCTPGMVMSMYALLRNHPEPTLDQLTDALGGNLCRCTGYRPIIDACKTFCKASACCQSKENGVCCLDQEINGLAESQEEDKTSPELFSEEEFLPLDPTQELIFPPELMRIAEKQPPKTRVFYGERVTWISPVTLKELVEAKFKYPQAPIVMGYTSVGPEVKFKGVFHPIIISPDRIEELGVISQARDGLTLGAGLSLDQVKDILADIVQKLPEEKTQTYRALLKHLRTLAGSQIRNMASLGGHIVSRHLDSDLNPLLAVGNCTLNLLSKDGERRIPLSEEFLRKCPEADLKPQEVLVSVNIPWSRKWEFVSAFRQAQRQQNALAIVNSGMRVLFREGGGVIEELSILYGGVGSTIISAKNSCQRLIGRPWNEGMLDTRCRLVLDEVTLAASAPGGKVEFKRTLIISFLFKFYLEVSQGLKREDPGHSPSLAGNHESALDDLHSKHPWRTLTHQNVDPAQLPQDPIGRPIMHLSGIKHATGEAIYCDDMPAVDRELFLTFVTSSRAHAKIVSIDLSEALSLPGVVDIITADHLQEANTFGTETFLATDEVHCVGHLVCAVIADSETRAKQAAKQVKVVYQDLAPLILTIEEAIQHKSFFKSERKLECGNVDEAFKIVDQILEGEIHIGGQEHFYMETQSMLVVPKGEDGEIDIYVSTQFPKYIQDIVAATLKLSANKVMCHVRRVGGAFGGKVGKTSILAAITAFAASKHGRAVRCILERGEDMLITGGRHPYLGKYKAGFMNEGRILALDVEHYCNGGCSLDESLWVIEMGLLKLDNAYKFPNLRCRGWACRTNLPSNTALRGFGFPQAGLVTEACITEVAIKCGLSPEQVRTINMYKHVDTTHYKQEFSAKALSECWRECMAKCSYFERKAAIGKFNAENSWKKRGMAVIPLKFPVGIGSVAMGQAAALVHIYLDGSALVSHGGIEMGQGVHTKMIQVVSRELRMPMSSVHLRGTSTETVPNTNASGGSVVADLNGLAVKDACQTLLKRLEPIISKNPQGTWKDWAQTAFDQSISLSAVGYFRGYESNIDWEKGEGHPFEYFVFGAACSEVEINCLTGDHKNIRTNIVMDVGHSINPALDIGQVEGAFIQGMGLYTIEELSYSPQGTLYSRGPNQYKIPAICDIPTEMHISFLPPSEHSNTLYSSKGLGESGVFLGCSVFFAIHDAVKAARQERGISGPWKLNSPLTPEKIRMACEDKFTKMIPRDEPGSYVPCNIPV
Description: Inhibition of mouse aldehyde oxidase.

Each structure is given as a SMILES string.

Consider `C[C@]12CC[C@@H]3c4ccc(O)cc4CC[C@H]3[C@@H]1CC[C@@H]2O` [ESTRADIOL], for which the half-inhibitory concentration (IC50) – broadly, the concentration that inhibits the measured activity by half – in test [1] amounted to 12 µM.
Take `OCCN1CCN(CCCN2c3ccccc3Sc3ccc(Cl)cc32)CC1` [PERPHENAZINE]: the IC50 came out at 6.1 µM in test [2] and 3.6 µM in test [1].

These data come from ChEMBL document CHEMBL1629464, “Aldehyde oxidase: an enzyme of emerging importance in drug discovery” (J Med Chem, 2010).
